Where “and” joins values, the source holds several entries; their conditions need not be identical. Identical values can stand only once.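 Following 48 hours of exposure in 96-well plates, responses at five concentrations were used to interpolate endpoints linearly. GI50 is the concentration that inhibits growth by half.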 Calls of active or inactive are those of the source. No stated cut-off is given here; in the data, active = GI50 up to about 1.1 µM and inactive = higher.

The text below walks through data of ChEMBL document CHEMBL1201862, “PubChem BioAssay data set” (2004).

What all share (assay): NCI-60 cell line screen, 48 h
The subject of experiment [1] is ACHN.
The subject of experiment [2] is HOP-92.
For experiment [3], the system named is IGROV-1.
Experiment [4] concerns K562.
The subject of experiment [5] is MCF7.
Experiment [6] deals with MDA-MB-435.
In experiment [7] the test system is MDA-N.
Experiment [8] concerns NCI-H23.
The test system of experiment [9] is NCI-H460.
The test system of experiment [10] is OVCAR-3.
The subject of experiment [11] is OVCAR-8.
Experiment [12] deals with RPMI-8226.
Experiment [13] has as its system SF-295.
The subject of experiment [14] is SF-539.
The subject of experiment [15] is SN12C.
In experiment [16] the test system is SNB-75.
In experiment [17] the test system is SW-620.
The subject of experiment [18] is T47D.
The subject of experiment [19] is TK-10.
Experiment [20] deals with UO-31.

Take `Nc1ccn(C2OC(COC(=O)C34CC5CC(CC(C5)C3)C4)C(O)C2O)c(=O)n1` (stereo not given): the GI50 is 1.77 µM (inactive) in [1]; > 100 µM (inactive) in [2]; > 100 µM (inactive) in [3]; 43.4 µM (inactive) in [4]; 4.81 µM (inactive) in experiment [5]; > 100 µM (inactive) in [6]. In addition, the GI50 in experiment [7] was > 100 µM (inactive); in [8], 12.2 µM (inactive); in [9], 0.392 µM (active); in experiment [10], > 100 µM (inactive); in experiment [11], 24.2 µM (inactive); in [12], > 100 µM (inactive). For the same compound, the GI50 in [13], in experiment [14], in experiment [15], in experiment [16], in [17] and in experiment [18] was > 100 µM (inactive) throughout. Moreover, the GI50 in experiment [19] was > 100 µM (inactive); in experiment [20], > 40.5 µM (inactive).
On to `Cc1cccc(/C=N/NC(=S)N(C)CCc2ccccn2)n1`, for which the GI50 in experiment [1] is 0.191 µM (active); in [2], 0.38 µM (active); in experiment [3], 0.366 µM (active); in [4], 0.163 µM (active); in [5] it was 0.42 µM (active); in [6] it was 0.521 µM (active). In addition, the GI50 in [7] was 0.473 µM (active); in experiment [8] it was 0.467 µM (active); in [9] it was 0.267 µM (active); in [10], 0.0853 µM (active); in experiment [11], 0.336 µM (active); in experiment [12], 0.104 µM (active). The GI50 in [13] was 0.383 µM (active); in experiment [14], 0.407 µM (active); in experiment [15] it was 0.378 µM (active); in experiment [16], 0.483 µM (active); in [17], 0.361 µM (active); in experiment [18], 0.123 µM (active). Also, the GI50 in [19] is 15.2 µM (inactive); in experiment [20], 0.271 µM (active).
On to `Clc1ccc(C2=C(c3ccccc3)C(c3ccc(Cl)cc3)N3C(=N[C@H]4CCCC[C@@H]43)N2)cc1` (stereo not given in full), for which the GI50 in experiment [1] was 11.2 µM (inactive); in experiment [2], 9.59 µM (inactive); in [3], 12.9 µM (inactive); in experiment [4], 2.3 µM (inactive); in [5] it was 7.06 µM (inactive); in experiment [6], 14.5 µM (inactive). The GI50 in experiment [7] is 14.7 µM (inactive); in [8], 14.2 µM (inactive); in [9], 2.99 µM (inactive); in experiment [10] it was 13.8 µM (inactive); in [11], 13.7 µM (inactive); in experiment [12], 2.48 µM (inactive). The GI50 in [13] was 11.6 µM (inactive); in experiment [14] it was 15.3 µM (inactive); in experiment [16] it was 15.2 µM (inactive); in experiment [17], 8.05 µM (inactive); in experiment [18], 15.6 µM (inactive); in [19], 10.5 µM (inactive). The GI50 in experiment [20] was 13.6 µM (inactive).
`CC(=O)NCCCCN(CCCNC(C)=O)C(=O)OCc1ccccc1`: the GI50 in experiment [1], in experiment [2], in experiment [3], in [4], in [5] and in [6] was > 100 µM (inactive) in each case. For the same compound, the GI50 in experiment [7], in experiment [8], in experiment [9], in experiment [10], in [11] and in experiment [12] was > 100 µM (inactive) each time. The GI50 in experiment [13] is > 100 µM (inactive); in [14], > 100 µM (inactive); in experiment [15], > 100 µM (inactive); in experiment [16], 19.1 µM (inactive); in experiment [17] it was > 100 µM (inactive); in experiment [18], > 100 µM (inactive). Also, the GI50 in experiment [19] was > 100 µM (inactive); in experiment [20] it was 64.3 µM (inactive).
On to `C=C1C(=O)OC2CC1C(OC(C)=O)C/C(C)=C/CC/C(C)=C\CCC2(C)O` (stereo not given), for which the GI50 in experiment [1] was 4.23 µM (inactive) and 2.37 µM (inactive); in [2], 3.65 µM (inactive) and 2.89 µM (inactive); in [4], 1.39 µM (inactive) and 2.54 µM (inactive); in experiment [5], 3.8 µM (inactive) and 3.74 µM (inactive); in [6], 4.19 µM (inactive) and 4.68 µM (inactive); in [7], 2.92 µM (inactive) and 4.09 µM (inactive). Further, the GI50 in [9] is 2.11 µM (inactive) and 3.41 µM (inactive); in [10] it was 5.93 µM (inactive) and 4.35 µM (inactive); in experiment [11], 3.36 µM (inactive) and 3.17 µM (inactive); in experiment [12] it was 1.9 µM (inactive) and 1.82 µM (inactive); in [13], 21.3 µM (inactive) and 17.2 µM (inactive); in experiment [14], 3.48 µM (inactive) and 5.43 µM (inactive). Also, the GI50 is 4.55 µM (inactive) and 3.09 µM (inactive) in experiment [15]; 11.2 µM (inactive) and 10.8 µM (inactive) in experiment [16]; 2.64 µM (inactive) and 3.4 µM (inactive) in [17]; 3.4 µM (inactive) and 4.56 µM (inactive) in [18]; 4.37 µM (inactive) and 3.66 µM (inactive) in experiment [19]; 3.24 µM (inactive) and 6.12 µM (inactive) in experiment [20].
`OCCOCCN1CCN(c2nc(N3CCCC3)c3nc(Cl)c(NCc4ccccc4)nc3n2)CC1`: the GI50 in experiment [1] is 14 µM (inactive); in experiment [2], 12.9 µM (inactive); in experiment [3], 18.3 µM (inactive); in experiment [4], 3.94 µM (inactive); in experiment [5], 13.9 µM (inactive); in experiment [6] it was 11.7 µM (inactive). Besides, the GI50 in [7] is 10.3 µM (inactive); in [8] it was 16.3 µM (inactive); in experiment [9], 11.5 µM (inactive); in experiment [10] it was 13.8 µM (inactive); in experiment [11] it was 17.4 µM (inactive); in [12], 7.64 µM (inactive). Moreover, the GI50 is 14.5 µM (inactive) in experiment [13]; 24.8 µM (inactive) in [14]; 15.6 µM (inactive) in experiment [15]; 21 µM (inactive) in experiment [16]; 17.7 µM (inactive) in experiment [17]; 13.2 µM (inactive) in experiment [18]. Further, the GI50 was 12.4 µM (inactive) in experiment [19] and 9.4 µM (inactive) in experiment [20].
Regarding `O=C1/C(=C/c2cccs2)N=C(c2ccccc2)N1C1Nc2cc3c(cc2S1)NC(N1C(=O)/C(=C/c2cccs2)N=C1c1ccccc1)S3` (stereo not given), the GI50 in experiment [1] was 34.1 µM (inactive); in [2] it was > 100 µM (inactive); in experiment [3] it was 32.1 µM (inactive); in experiment [4] it was 40.9 µM (inactive); in experiment [5], 23 µM (inactive); in [6], 17.7 µM (inactive). The GI50 in experiment [7] was 18.6 µM (inactive); in [8], 17.4 µM (inactive); in [9], 6.97 µM (inactive); in experiment [10] it was 30.7 µM (inactive); in [11] it was 17.1 µM (inactive); in [12] it was 19.8 µM (inactive). Moreover, the GI50 in experiment [13] is 60.1 µM (inactive); in experiment [14] it was 14 µM (inactive); in experiment [16], 25.4 µM (inactive); in [17] it was 26.9 µM (inactive); in experiment [18], 51.8 µM (inactive); in [19], 41.5 µM (inactive). In experiment [20], the GI50 was 35.3 µM (inactive).
For the compound `CC1=C2c3c(C)ccc4ccc(C)c(c34)C2(O)C(C)C1=O` (stereo not given), the GI50 is 73.6 µM (inactive) in experiment [1]; 44.5 µM (inactive) in experiment [2]; 49.2 µM (inactive) in experiment [3]; 49.5 µM (inactive) in experiment [4]; 68.5 µM (inactive) in [5]; 52.1 µM (inactive) in experiment [6]. The GI50 was 54.1 µM (inactive) in [7]; 60.1 µM (inactive) in experiment [9]; 37.7 µM (inactive) in experiment [10]; 19.4 µM (inactive) in [11]; 33 µM (inactive) in [12]; > 100 µM (inactive) in experiment [14]. Further, the GI50 in experiment [15] is > 100 µM (inactive); in [16], 30.8 µM (inactive); in experiment [17], > 100 µM (inactive); in [18] it was 29.3 µM (inactive); in experiment [19] it was > 100 µM (inactive); in [20], 21.3 µM (inactive).
For the compound `COc1ccc(/C=C(\C#N)c2nc(-c3cc4ccccc4oc3=O)cs2)cc1`, the GI50 in experiment [1] is 19 µM (inactive); in experiment [2] it was 18.3 µM (inactive); in experiment [3], 22.2 µM (inactive); in [4], 58.5 µM (inactive); in [5] it was 55.7 µM (inactive); in [6], 37.8 µM (inactive). The GI50 in experiment [7] is 44.5 µM (inactive); in experiment [9], 21.4 µM (inactive); in experiment [11] it was 18.1 µM (inactive); in [12], 42.9 µM (inactive); in [13], 21.9 µM (inactive); in experiment [14], 21 µM (inactive). The GI50 in experiment [15] was 23.8 µM (inactive); in experiment [16], 23.2 µM (inactive); in experiment [17] it was 19.7 µM (inactive); in [18] it was 52.5 µM (inactive); in [19], 26.2 µM (inactive); in [20], 23.2 µM (inactive).
For the compound `Cc1ccc(C(=O)Cn2c(C(=O)/C=C/c3cccs3)nc3ccccc32)cc1`, the GI50 in experiment [1] is 61.4 µM (inactive); in experiment [2], 93.5 µM (inactive); in experiment [3], 25 µM (inactive); in experiment [4], 25.8 µM (inactive); in experiment [5], 29.6 µM (inactive); in [6], 21.3 µM (inactive). Besides, the GI50 in [7] was 28.1 µM (inactive); in [8] it was 29.9 µM (inactive); in experiment [9], 22.4 µM (inactive); in [10], 31.3 µM (inactive); in [12], 21.7 µM (inactive); in [14], > 100 µM (inactive). Besides, the GI50 in experiment [15] was 32.9 µM (inactive); in experiment [16] it was > 100 µM (inactive); in experiment [17], 34.2 µM (inactive); in experiment [18] it was > 100 µM (inactive); in experiment [19] it was 53.2 µM (inactive); in experiment [20], 62.8 µM (inactive).
